Test results: patent US20160168541A1, “TRANSDUCIBLE MATERIALS FOR CELL REPROGRAMMING” (VIVOSCRIPT, INC., priority 2013, published 2016)
“Also recorded” adds a separate entry of the source.

Legend:
Type in all cases: cell-based
adult human fibroblasts [1] = assay: Live fluorescent imaging of uptake and nuclear occupancy of sGFP polypeptides in fibroblasts; conditions: 10 μg/ml
Description: FIG. 5. Live fluorescent imaging of human fibroblasts after culturing in 10 μg/ml of first generation sGFP-MyoD-11R.
In the first generation of transducible materials, a sGFP transduction domain and a poly-arginine (11R) were fused to the N-terminus and C-terminus of MyoD through a linker (SEQ ID NO: 99) respectively to generate sGFP-MyoD-11R (SEQ ID NO: 156). […] The nuclear entry of sGFP-MyoD-11R was increased by using 100 μg/ml sGFP-MyoD-11R and electroporation, which successful reprogrammed very low percentage (around 10%) of FBs to MyoD+ myoblasts.
The second generation of transducible materials, a strong classic nuclear localization sequence (cNLS), the SV40 T antigen NLS, was added in-between sGFP and MyoD-11R (SEQ ID NO: 157 and FIG. 3).
Leptomycin B (leptoB), a nuclear export blocker, was added at 5 nM to adult fibroblasts to enhance nuclear occupancy of sGFP-NLS-MyoD-11R. […] Higher concentrations of leptoB might have off-target effects, which limits its use in enhancing nuclear retention of specific polypeptides.
In the third generation of transducible materials, the NES of MyoD was mutated to generate sGFP-NLS-MyoD(mNES)-11R (SEQ ID NO: 127 and FIG. 3) to further improve their nuclear occupancy and transcription efficiency. […] These SCs were positive for Myf5 (>90% of SCs) at 22 days after transduction (FIG. 8B). Also, these SCs could be induced to differentiate to myoblasts with downregulation of Pax7 and upregulation of MyoD via a published myogenic protocol (Cosgrove et al, Rejuvenation of the muscle stem cell population restores strength to injured aged muscles, Nat Med., 20:255-64 (2014)). […] Thus, by using sGFP-NLS-MyoD(mNES)-11R, efficient fibroblasts conversion to SMPCs can be achieved in a controlled fashion. The risk of extensive durations of MyoD activation is completely avoided. Most myogenic analysis was performed at >2 weeks after polypeptide transduction to avoid confounding issues from added exogenous polypeptides. In summary, adult fibroblast can be successfully reprogrammed to SCs using sGFP-NLS-MyoD(mNES)-11R with defined kinetics (2-day nuclear occupancy and 2-3 week peptide lifespan).

adult human fibroblasts [2] = assay: Reprogramming of fibroblasts to skeletal muscle progenitor cells (satellite cells, myoblasts)
Description: FIG. 4. Schematic of experimental protocol to convert fibroblasts to myoblasts with transducible materials derived from MyoD.
In this example, three versions of transducible materials derived from MyoD (the master myogenic transcription factor) were generated and their effects on reprogramming fibroblast cells into skeletal muscle progenitor cells (SMPCs) were compared.
Most myogenic analysis was performed at >2 weeks after polypeptide transduction to avoid confounding issues from added exogenous polypeptides.

[3] = test system: Oct4 target genes (Oct4, Sox2, Nanog, Smad3 and Smad4); assay: RT-qPCR of Oct4 target genes in HepG2 cells treated with transducible materials; conditions: serum-free medium, 6 hours, normalized by GAPDH, sGFP-treated sample set as 1.00
Description: FIG. 2. Comparison of sGFP-Oct4(mNES) and sGFP-Oct4 protein in regulating the expression of downstream genes. HepG2 cells were treated with sGFP, sGFP-Oct4 or sGFP-Oct4(mNES) in serum-free medium for 6 hours. RNA was isolated and RT-qPCR was performed. The expression of each gene was normalized by the expression level of GAPDH. The relative expression level of each gene in the control condition (sGFP-treated sample) was set as 1.00.
HepG2 cells were treated with transducible materials comprising isolated polypeptide of sGFP, sGFP-Oct4-11R or sGFP-Oct4(mNES)-11R in serum-free medium for 6 hours. RNA was extracted from each sample using RNeasy Micro Kit from Qiagen and cDNA was synthesized through reverse transcription reaction. RT-qPCRs of five Oct4 target genes (Oct4, Sox2, Nanog, Smad3 and Smad4 were performed using a pair of primers specific to each target gene and a hydrolysis probe from Roche Universal ProbeLibrary on LightCycler 480 II. The expression of each gene was normalized by the expression level of GAPDH. The relative expression level of each gene in the control condition (sGFP-treated sample) was set as 1.00.

Substance	time the polypeptide stays in the nucleus (adult human fibroblasts [1]; leptomycin B 5 nM) [h]	nuclear occupancy (GFP signal in nuclei) with leptomycin B (adult human fibroblasts [1]; leptomycin B 5 nM, third generation at 30 min, 24 hours and 48 hours)	nuclear occupancy (localization of GFP signal) (adult human fibroblasts [1]; no leptomycin B)	change of nuclear occupancy with time (adult human fibroblasts [1]; no leptomycin B, 24 hours)	reprogramming of fibroblasts to SMPCs (adult human fibroblasts [2]; 10 μg/ml, no leptomycin B)	reprogramming efficiency of adult fibroblasts to SMPCs (adult human fibroblasts [2]; continuous presence of leptomycin B 5 nM)	expression of Oct4 target genes [3]
sGFP-NLS-MyoD-11R: Second generation: SV40 T antigen NLS added between sGFP and MyoD-11R, SEQ ID NO: 157	> 24	slightly improves the nuclear occupancy	more transducible materials were observed in nuclei; also recorded: GFP signal were observed in the nuclei	significantly decreased within 24 hours; also recorded: GFP signal in the nuclei decreased after 24 hours	low and inconsistent	around 5%	
sGFP-Oct4-11R: Fusion polypeptide of supercharged GFP, Oct4 and 11R, SEQ ID NO: 155, unmutated NES							does not increase
